In PMC6832524, “A Nature-Inspired Design Yields a New Class of Steroids Against Trypanosomatids” (Molecules, 2019):
Read-outs that look alike come from different tables or passages of the source.

What was measured:
[1] = system: L. infantum .uy (parasites isolated from two dogs in the first Leishmaniasis outbreak in Uruguay); assay: in vitro activity against L. infantum isolated from dogs in Uruguay; type: cell-based, Leishmania infantum; details: for IC50: Leishmania infantum, read-out: IC50 ± %SD (µM) L. infantum .uy
Method: Compounds were dissolved in dimethylsulfoxide (DMSO).
For assessing the amastigote form of all Leishmania strains were cultured in the RPMI described above. Parasites were seeded at 1 × 10^6 cells/mL and at each time point counted at least five times to obtain a growth curve. […] Control conditions of parasites without drug (100% growth) and medium without parasites were included. After 72 h at 28 °C parasite viability was determined by the resazurin method described. Infection with L. infantum. THP-1 monocytes (ATCC®TIB-202™) were grown following ATCC recommendations and seeded at 30,000 cells/well onto 18-mm round glass coverslips in 12 wells. For stimulation cells were incubated with 100 nM of PMA for 48 h, PMA was washed and cells left with growth media for 24 h more after incubation with parasites. 30,000 parasites/well were added and left to interact. After 48 h, coverslips were washed with PBS, fixed with 95% (v/v) ethanol, and stained with Fluoroshield™ with DAPI (Sigma). Infectivity was assessed considering invasion and replication capacity counting infected cells and parasites per infected cell, respectively. Infectivity index calculation = (% of infected cells X (amastigotes per cell))/number of total counted cells. Image acquisition was made with a Leica TCS-SP5 laser scanning confocal microscope (Leica Microsystems GmbH, Wetzlar, Germany) using the LASAF v.2 software (Leica Microsystems, Wetzlar, Germany) and observed using a 356 nm laser excitation line and an emission bandwidth from 461 nm under a 20× water immersion objective. Further image analysis, including quantitation and processing of figures were made using Fiji (http://fiji.sc/).

[2] = system: L. amazonensis (promastigotes); assay: in vitro anti-Leishmania activity, promastigotes, resazurin; type: cell-based; details: maximum dose tested 25 µM, read-out: IC50 ± %SD (µM) L. amazonensis
[3] = system: L. infantum (MHOM/BR/2002/LPC-RPV) promastigotes; assay: in vitro anti-Leishmania activity, promastigotes, resazurin; type: cell-based, Leishmania infantum
[4] = system: promastigotes L. braziliensis/ L. amazonensis; assay: in vitro anti-Leishmania activity, promastigotes (Table 1S); type: cell-based; details: read-out: IC50 ± %SD (µM) promastigotes L. braziliensis/ L. amazonensis
[5] = system: T. cruzi epimastigotes, Tulahuen 2 strain (genotype TcVI); assay: in vitro anti-T. cruzi activity, epimastigote growth (absorbance 600 nm); type: cell-based, Trypanosoma cruzi
Method: Control parasites were cultivated in 0.4% DMSO. Each concentration of the compound was evaluated in duplicate.

[6] = system: J774.1 murine macrophages; assay: nonspecific cytotoxicity on mammalian cells, MTT; type: cell-based; details: for IC50: Mus musculus, J774.1, 48 h, MTT, read-out: IC50 ± SD (µM) Murine Macrophages; for SI J774.1/T. cruzi: ratio IC50 murine macrophages / IC50 T. cruzi epimastigotes
[7] = Leishmania infantum, promastigotes, maximum dose tested 25 µM, read-out: IC50 ± %SD (µM) L. infantum
[8] = Trypanosoma cruzi, TULAHUEN, epimastigotes, maximum dose tested 25 µM, read-out: IC50 ± %SD (µM) T. cruzi
[9] = parasites isolated from two dogs in Uruguay, maximum dose tested 25 µM

| Structure (SMILES) | IC50 [1] [µM] | IC50 [2] [µM] | melting point [°C] | IC50 [3, 7] [µM] | IC50 [4] [µM] | IC50 [5, 8] [µM] | other results |
| --- | --- | --- | --- | --- | --- | --- | --- |
| C[C@]12CC[C@H]3[C@@H](CC=C4CC(O)CC[C@@]43C)[C@@H]1CC[C@@H]2C(=O)/C=C/c1ccc(Cl)cc1 (stereo partly drawn) [Compound 3, (2E)-3-(4-Chlorophenyl)-1-((10R,13S)-2,3,4,7,8,9,10,11,12,13,14,15,16,17-tetradecahydro-3(β)-hydroxy-10,13-dimethyl-1H-cyclo-penta[a]phenanthren-17(β)-yl)prop-2-en-1-one] | > 25 | > 25 | 159 to 161 | > 25 | > 25 | > 25 | – |
| C[C@]12CC[C@H]3[C@@H](CC=C4CC(O)CC[C@@]43C)[C@@H]1CC[C@@H]2C(=O)/C=C/C=C/c1ccccc1 (stereo partly drawn) [Compound 6, (2E,4E)-1-((8S,9S,10R,13S,14S,17S)-3-hydroxy-10,13-dimethyl-2,3,4,7,8,9,10,11,12,13,14,15,16,17-tetradecahydro-1H-cyclopenta[a]phenanthren-17-yl)-5-phenylpenta-2,4-dien-1-one] | > 25 | > 25 | 116 to 119 | > 25 | > 25 | > 25 | – |
| C[C@]12CC[C@H]3[C@@H](CC=C4CC(O)CC[C@@]43C)[C@@H]1CC[C@@H]2C(=O)/C=C/c1ccccc1 (stereo partly drawn) [Compound 5, (2E)-1-((10R,13S)-2,3,4,7,8,9,10,11,12,13,14,15,16,17-tetradecahydro-3(β)-hydroxy-10,13-dimethyl-1H-cyclopenta[a]phenan-thren-17(β)-yl)-3-phenylprop-2-en-1-one] | > 25 | > 25 | – | > 25 | > 25 | > 25 | – |
| C=CCn1c(-c2ccc(Cl)cc2)csc1=NN=C(C)[C@H]1CC[C@H]2[C@@H]3CC=C4C[C@@H](O)CC[C@]4(C)[C@H]3CC[C@]12C [Compound 20, 1-(3β-Hydroxy-pregn-5-ene-20E-ylidene)-2-(3-allyl-4-(4-chloro-pheny)thiazol-2(3H)-ylidene)azine] | – | – | – | – | > 25 | – | IC50 ([3]; Table 1S, read-out: IC50 ± %SD (µM) promastigotes L. infantum): > 25 µM; IC50 ([5]; Table 1S, read-out: IC50 ± %SD (µM) epimastigotes T. cruzi): > 25 µM |
| C/C(=N\Nc1nc(C(=O)N2CCN(C/C=C\c3ccccc3)CC2)cs1)[C@@H]1CC[C@H]2[C@@H]3CC=C4CC(O)CC[C@]4(C)[C@H]3CC[C@]12C (stereo partly drawn) [Compound 13, (2-((E)-2-(1-((8S,9S,10R,13S,14S,17R)-3-hydroxy-10,13-dimethyl-2,3,4,7,8,9,10,11,12,13,14,15,16,17-tetradecahydro-1H-cyclopenta[a]phenanthren-17-yl)ethylidene)hydrazinyl)thiazol-4-yl)(4-((Z)-3-phenylallyl)piperazin-1-yl)methanone] | > 25 | – | – | > 25 | > 25 | > 25 | – |
| C/C(=N/N=c1\[nH]c(C(=O)O)cs1)[C@@H]1CC[C@H]2[C@@H]3CC=C4CC(O)CC[C@]4(C)[C@H]3CC[C@]12C (stereo partly drawn) [Compound 18, (Z)-2-((E)-(1-((8S,9S,10R,13S,14S,17R)-3-hydroxy-10,13-dimethyl-2,3,4,7,8,9,10,11,12,13,14,15,16,17-tetradecahydro-1H-cyclopenta[a]phenanthren-17-yl)ethylidene)hydrazono)-2,3-dihydrothiazole-4-carboxylic acid] | – | – | 281 to 283 | – | – | – | – |
| C=CCn1c(C(=O)NCC(=O)OCC)cs/c1=N/N=C(/C)[C@@H]1CC[C@H]2[C@@H]3CC=C4CC(O)CC[C@]4(C)[C@H]3CC[C@]12C (stereo partly drawn) [Compound 14, Ethyl-2-((Z)-3-allyl-2-((E)-(1-((8S,9S,10R,13S,14S,17R)-3-hydroxy-10,13-dimethyl-2,3,4,7,8,9,10,11,12,13,14,15,16,17-tetradecahydro-1H-cyclopenta[a]phenanthren-17-yl)ethylidene)hydrazono)-2,3-dihydrothiazole-4-carboxamido)acetate] | > 25 | – | – | > 25 | > 25 | 8 ± 2 | active against the strains isolated from Uruguayan dogs, in words [1]: not; IC50 [6]: 100 ± 8 µM; SI J774.1/T. cruzi [6]: 13; activity against Leishmania infantum from Fiocruz collection, in words [3]: active |
| CC(=O)[C@H]1CC[C@H]2[C@@H]3CC=C4C[C@@H](O)CC[C@]4(C)[C@H]3CC[C@]12C [Pregnenolone, 3β-hydroxyl-5-pregnen-20-one, reference compound] | – | > 25 | – | > 25 | – | > 25 | IC50 [1, 9]: > 25 µM |
| C=CCn1c(C(=O)O)cs/c1=N/N=C(/C)[C@@H]1CC[C@H]2[C@@H]3CC=C4CC(O)CC[C@]4(C)[C@H]3CC[C@]12C (stereo partly drawn) [Compound 19, (Z)-3-allyl-2-((E)-(1-((8S,9S,10R,13S,14S,17R)-3-hydroxy-10,13-dimethyl-2,3,4,7,8,9,10,11,12,13,14,15,16,17-tetradecahydro-1H-cyclopenta[a]phenanthren-17-yl)ethylidene)hydrazono)-2,3-dihydrothiazole-4-carboxylic acid] | – | – | 145 to 149 | – | – | – | – |
| C=CCn1c(C(=O)N2CCN(CC=Cc3ccccc3)CC2)cs/c1=N/N=C(/C)[C@@H]1CC[C@H]2[C@@H]3CC=C4CC(O)CC[C@]4(C)[C@H]3CC[C@]12C (stereo partly drawn) [Compound 12, ((Z)-3-allyl-2-((E)-(1-((8S,9S,10R,13S,14S,17R)-3-hydroxy-10,13-dimethyl-2,3,4,7,8,9,10,11,12,13,14,15,16,17-tetradecahydro-1H-cyclopenta[a]phenanthren-17-yl)ethylidene)hydrazono)-2,3-dihydrothiazol-4-yl)(4-cinnamylpiperazin-1-yl)methanone] | > 25 | – | – | > 25 | > 25 | > 25 | – |
| C[C@]12CC[C@H]3[C@@H](CC=C4CC(O)CC[C@@]43C)[C@@H]1CC[C@@H]2C(=O)/C=C/c1cccc(Br)c1 (some centres unmarked) [Compound 4] | > 25 | > 25 | 159 to 161 | > 25 | > 25 | 20 ± 5 | active against the strains isolated from Uruguayan dogs, in words [1]: not; activity against Leishmania infantum from Fiocruz collection, in words [3]: active |
| C[C@]12CC[C@H]3[C@@H](CC=C4CC(O)CC[C@@]43C)[C@@H]1CC[C@@H]2C(=O)/C=C/C=C/c1ccco1 (stereo partly drawn) [Compound 7, (2E,4E)-5-(furan-2-yl)-1-((8S,9S,10R,13S,14S,17S)-3-hydroxy-10,13-dimethyl-2,3,4,7,8,9,10,11,12,13,14,15,16,17-tetradecahydro-1H-cyclopenta[a]phenanthren-17-yl)penta-2,4-dien-1-one] | > 25 | > 25 | 100 to 103 | > 25 | > 25 | > 25 | – |
| CCCCCCCCCCCCCCCCOP(=O)([O-])OCC[N+](C)(C)C [Miltefosine, reference compound] | – | – | – | 0.9 ± 0.2 | – | 8 ± 2 | IC50 [1, 9]: 5 ± 2 µM; IC50 [6]: 50 ± 7 µM; SI J774.1/L. infantum ([6]; ratio IC50 murine macrophages / IC50 L. infantum promastigotes): 56; SI J774.1/T. cruzi [6]: 6 |
| CC1CS(=O)(=O)CCN1/N=C/c1ccc([N+](=O)[O-])o1 (centres unmarked) [Nifurtimox, reference compound] | – | – | – | 6 ± 2 | – | 7 ± 2 | IC50 [1, 9]: 10 ± 2 µM |
| C=CCn1c(-c2ccc(Br)cc2)csc1=NN=C(C)C1CCC2C3CC=C4CC(O)CCC4(C)C3CCC12C (stereo not drawn) [Compound 11, 1-(3β-Hydroxy-pregn-5-ene-20E-ylidene)-2-(3-allyl-4-(4-bromo-pheny)thiazol-2(3H)-ylidene)azine] | > 25 | 16 ± 3 | 179 to 183 | > 25 | 16 ± 3 | > 25 | – |
| C[C@]12CC[C@H]3[C@@H](CC=C4CC(O)CC[C@@]43C)[C@@H]1CC[C@@H]2C(=O)/C=C/c1cccnc1Br (some centres unmarked) [Compound 1] | > 25 | > 25 | 193 to 195 | > 25 | > 25 | > 25 | – |
